Patent US11208400B2, “Substituted 6-(1H-pyrazol-1-yl)pyrimidin-4-amine derivatives and uses thereof” (Bayer Aktiengesellschaft, priority 2016, dated 2021)

Target: T1, human Npt2a (Homo sapiens, UniProt Q06495)
T1 construct: expressed in transfected cells
T1 sequence (Q06495 1-639): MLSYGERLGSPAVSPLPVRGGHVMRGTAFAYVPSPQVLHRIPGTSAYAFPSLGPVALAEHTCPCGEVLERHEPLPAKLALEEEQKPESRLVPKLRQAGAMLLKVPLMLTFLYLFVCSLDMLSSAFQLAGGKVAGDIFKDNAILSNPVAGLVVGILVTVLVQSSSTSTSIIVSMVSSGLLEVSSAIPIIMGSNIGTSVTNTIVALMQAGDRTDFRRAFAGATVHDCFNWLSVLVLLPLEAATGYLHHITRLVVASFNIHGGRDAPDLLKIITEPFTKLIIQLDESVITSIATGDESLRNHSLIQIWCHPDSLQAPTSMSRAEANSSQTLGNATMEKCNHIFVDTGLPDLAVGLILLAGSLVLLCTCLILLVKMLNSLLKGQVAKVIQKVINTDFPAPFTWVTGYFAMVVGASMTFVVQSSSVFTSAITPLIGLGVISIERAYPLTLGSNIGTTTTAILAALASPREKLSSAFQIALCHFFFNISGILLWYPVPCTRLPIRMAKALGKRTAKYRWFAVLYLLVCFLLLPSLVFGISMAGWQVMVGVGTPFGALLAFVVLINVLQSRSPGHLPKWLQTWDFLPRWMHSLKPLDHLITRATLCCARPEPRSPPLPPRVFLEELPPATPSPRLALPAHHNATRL
Experiment: Npt2a activity cell based assay, membrane potential dye, CHO T-REx hNpt2a cells
Conditions: doxycycline-induced, depolarization by sodium phosphate influx, average or median values if tested more than once
Method in brief: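 Doxycycline-induced (0.5 μg/mL, 24 h) CHO T-REx cells were loaded with membrane potential dye in sodium-free NHE buffer (pH 7.4) and exposed to compound (50 μM–1 nM, 5 min, room temperature).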

In order of rising IC50:
1. Cc1nn(-c2cc(Nc3c(C)c(-c4ccc(C#N)cc4)nn3CC3CC3)ncn2)c(C)c1C(C)(C)O [Example 165, 4-[1-(cyclopropylmethyl)-5-({6-[4-(2-hydroxypropan-2-yl)-3,5-dimethyl-1H-pyrazol-1-yl]pyrimidin-4-yl}amino)-4-methyl-1H-pyrazol-3-yl]benzonitrile]  3 nM
2. CCc1c(Nc2cc(-n3nc(C)cc3C)ncn2)nn(C)c1-c1ccc(F)cc1 [Example 1, 6-(3,5-dimethyl-1H-pyrazol-1-yl)-N-[4-ethyl-5-(4-fluorophenyl)-1-methyl-1H-pyrazol-3-yl]pyrimidin-4-amine]  4.48 nM
3. Cc1nn(-c2cc(Nc3nn(C)c(-c4ccc(F)cc4)c3OC(F)F)ncn2)c(C)c1C#N [Example 471, 1-(6-{[4-(difluoromethoxy)-5-(4-fluorophenyl)-1-methyl-1H-pyrazol-3-yl]amino}pyrimidin-4-yl)-3,5-dimethyl-1H-pyrazole-4-carbonitrile]  7 nM
4. COC(C)c1c(C)nn(-c2cc(Nc3nn(C)c(-c4ccc(F)cc4)c3C)ncn2)c1C (single isomer, unassigned) [Example 345, N-[5-(4-fluorophenyl)-1,4-dimethyl-1H-pyrazol-3-yl]-6-{4-[1-methoxyethyl]-3,5-dimethyl-1H-pyrazol-1-yl}pyrimidin-4-amine]  7 nM
5. Cc1nn(-c2cc(Nc3nn(C)c(-c4ccc(C(F)(F)F)nc4)c3C)ncn2)c(C)c1Cl [Example 553, 6-(4-chloro-3,5-dimethyl-1H-pyrazol-1-yl)-N-{1,4-dimethyl-5-[6-(trifluoromethyl)pyridin-3-yl]-1H-pyrazol-3-yl}pyrimidin-4-amine]  7.2 nM
6. Cc1nn(-c2cc(Nc3c(C)nn(-c4ccc(C#N)cc4)c3C)ncn2)c(C(F)F)c1Cl [Example 200, 4-[4-({6-[4-chloro-5-(difluoromethyl)-3-methyl-1H-pyrazol-1-yl]pyrimidin-4-yl}amino)-3,5-dimethyl-1H-pyrazol-1-yl]benzonitrile]  8 nM
7. COCCn1nc(-c2ccc(F)cc2)c(C)c1Nc1cc(-n2nc(C)c(C(F)(F)F)c2C)ncn1 [Example 524, 6-[3,5-dimethyl-4-(trifluoromethyl)-1H-pyrazol-1-yl]-N-[3-(4-fluorophenyl)-1-(2-methoxyethyl)-4-methyl-1H-pyrazol-5-yl]pyrimidin-4-amine]  8 nM
8. CCc1c(-c2ccc(F)cc2)nn(CC2CC2)c1Nc1cc(-n2nc(C)c(-c3nnc(C)o3)c2C)ncn1 [Example 225, N-[1-(cyclopropylmethyl)-4-ethyl-3-(4-fluorophenyl)-1H-pyrazol-5-yl]-6-[3,5-dimethyl-4-(5-methyl-1,3,4-oxadiazol-2-yl)-1H-pyrazol-1-yl]pyrimidin-4-amine]  8 nM
9. CCOC(=O)c1c(C)nn(-c2cc(Nc3c(Cl)c(-c4ccc(C#N)cc4)nn3CC3CC3)ncn2)c1C [Example 442, ethyl 1-(6-{[4-chloro-3-(4-cyanophenyl)-1-(cyclopropylmethyl)-1H-pyrazol-5-yl]amino}pyrimidin-4-yl)-3,5-dimethyl-1H-pyrazole-4-carboxylate]  8 nM
10. Cc1nn(-c2cc(Nc3c(C)c(-c4ccc(F)cc4)nn3CC3CC3)ncn2)c(C)c1OC(F)F [Example 509, N-[1-(cyclopropylmethyl)-3-(4-fluorophenyl)-4-methyl-1H-pyrazol-5-yl]-6-[4-(difluoromethoxy)-3,5-dimethyl-1H-pyrazol-1-yl]pyrimidin-4-amine]  10 nM
11. COCCn1nc(-c2ccc(F)cn2)c(C)c1Nc1cc(-n2nc(C)c(OC)c2C)ncn1 [Example 544, N-[3-(5-fluoropyridin-2-yl)-1-(2-methoxyethyl)-4-methyl-1H-pyrazol-5-yl]-6-(4-methoxy-3,5-dimethyl-1H-pyrazol-1-yl)pyrimidin-4-amine]  11 nM
12. Cc1cc(C)n(-c2cc(Nc3c(C)c(-c4ccc(F)cc4)nn3CC3CC3)ncn2)n1 [Example 171, N-[1-(cyclopropylmethyl)-3-(4-fluorophenyl)-4-methyl-1H-pyrazol-5-yl]-6-(3,5-dimethyl-1H-pyrazol-1-yl)pyrimidin-4-amine]  12 nM
13. Cc1nn(-c2cc(Nc3c(C)c(-c4ccc(F)cc4)nn3CC3CC3)ncn2)c(C)c1C(O)C(F)F (racemic) [Example 392, (±)-1-[1-(6-{[1-(cyclopropylmethyl)-3-(4-fluorophenyl)-4-methyl-1H-pyrazol-5-yl]amino}pyrimidin-4-yl)-3,5-dimethyl-1H-pyrazol-4-yl]-2,2-difluoroethanol]  18 nM
14. CCc1c(Nc2cc(-n3nc(C)cc3C(C)(C)O)ncn2)nn(C)c1-c1ccc(F)cc1 [Example 125, 2-[1-(6-{[4-ethyl-5-(4-fluorophenyl)-1-methyl-1H-pyrazol-3-yl]amino}pyrimidin-4-yl)-3-methyl-1H-pyrazol-5-yl]propan-2-ol]  20.3 nM
15. Cc1nn(-c2cc(Nc3n[nH]c(-c4ccc(F)cc4)c3C)ncn2)c(C(F)F)c1Cl [Example 140, 6-[4-chloro-5-(difluoromethyl)-3-methyl-1H-pyrazol-1-yl]-N-[5-(4-fluorophenyl)-4-methyl-1H-pyrazol-3-yl]pyrimidin-4-amine]  23 nM
16. COCCn1nc(-c2ccc(C(F)F)cc2)c(C)c1Nc1cc(-n2nc(C)c(Cl)c2C)ncn1 [Example 537, 6-(4-chloro-3,5-dimethyl-1H-pyrazol-1-yl)-N-{3-[4-(difluoromethyl)phenyl]-1-(2-methoxyethyl)-4-methyl-1H-pyrazol-5-yl}pyrimidin-4-amine]  26 nM
17. Cc1nn(-c2cc(Nc3nn(C)c(-c4ccc(F)cc4)c3C)ncn2)c(C)c1F [Example 267, 6-(4-fluoro-3,5-dimethyl-1H-pyrazol-1-yl)-N-[5-(4-fluorophenyl)-1,4-dimethyl-1H-pyrazol-3-yl]pyrimidin-4-amine]  27 nM
18. Cc1nn(-c2cc(Nc3c(C)c(-c4ccccc4)nn3C)ncn2)c(C)c1Cl [Example 86, 6-(4-chloro-3,5-dimethyl-1H-pyrazol-1-yl)-N-(1,4-dimethyl-3-phenyl-1H-pyrazol-5-yl)pyrimidin-4-amine]  50 nM
19. Cc1cc(C)n(-c2cc(Nc3c(C)c(-c4ccc(F)cc4)nn3C)ncn2)n1 [Example 71, 6-(3,5-dimethyl-1H-pyrazol-1-yl)-N-[3-(4-fluorophenyl)-1,4-dimethyl-1H-pyrazol-5-yl]pyrimidin-4-amine]  50 nM
20. Cc1cc(C)n(-c2cc(Nc3nn(C)c(-c4cccc(C#N)c4)c3C)ncn2)n1 [Example 189, 3-(3-{[6-(3,5-dimethyl-1H-pyrazol-1-yl)pyrimidin-4-yl]amino}-1,4-dimethyl-1H-pyrazol-5-yl)benzonitrile]  74 nM
21. Cc1nn(-c2cc(Nc3c(C)c(-c4ccc(F)cc4)nn3C)ncn2)c(C(F)F)c1Cl [Example 139, 6-[4-chloro-5-(difluoromethyl)-3-methyl-1H-pyrazol-1-yl]-N-[3-(4-fluorophenyl)-1,4-dimethyl-1H-pyrazol-5-yl]pyrimidin-4-amine]  130 nM
22. COc1c(-c2ccc(F)cc2)nn(C)c1Nc1cc(-n2nc(C)cc2C)ncn1 [Example 254, 6-(3,5-dimethyl-1H-pyrazol-1-yl)-N-[3-(4-fluorophenyl)-4-methoxy-1-methyl-1H-pyrazol-5-yl]pyrimidin-4-amine]  150 nM
23. Cc1cc(C)n(-c2cc(Nc3c(C)nn(-c4ccc(F)cc4)c3C)ncn2)n1 [Example 78, 6-(3,5-dimethyl-1H-pyrazol-1-yl)-N-[1-(4-fluorophenyl)-3,5-dimethyl-1H-pyrazol-4-yl]pyrimidin-4-amine]  247 nM
24. COc1c(C)nn(-c2cc(Nc3c(C)c(-c4ccc(F)cn4)nn3C)ncn2)c1C [Example 468, N-[3-(5-fluoropyridin-2-yl)-1,4-dimethyl-1H-pyrazol-5-yl]-6-(4-methoxy-3,5-dimethyl-1H-pyrazol-1-yl)pyrimidin-4-amine]  300 nM
25. Cc1nn(-c2cc(Nc3[nH]nc(-c4ccc(C#N)cc4)c3C)ncn2)c(C)c1F [Example 266, 4-(5-{[6-(4-fluoro-3,5-dimethyl-1H-pyrazol-1-yl)pyrimidin-4-yl]amino}-4-methyl-1H-pyrazol-3-yl)benzonitrile]  410 nM
26. COCCn1nc(-c2ccc(F)cn2)c(C)c1Nc1cc(-n2nc(C)cc2C(F)F)ncn1 [Example 543, 6-[5-(difluoromethyl)-3-methyl-1H-pyrazol-1-yl]-N-[3-(5-fluoropyridin-2-yl)-1-(2-methoxyethyl)-4-methyl-1H-pyrazol-5-yl]pyrimidin-4-amine]  480 nM
27. Cc1nn(-c2cc(Nc3c(C)c(-c4ccc(C(F)(F)F)nc4)nn3C)ncn2)c(C)c1Cl [Example 550, 6-(4-chloro-3,5-dimethyl-1H-pyrazol-1-yl)-N-{1,4-dimethyl-3-[6-(trifluoromethyl)pyridin-3-yl]-1H-pyrazol-5-yl}pyrimidin-4-amine]  500 nM
28. COc1c(-c2ccc(F)cc2)nn(CC2CC2)c1Nc1cc(-n2nc(C)c(C(C)O)c2C)ncn1 (racemic) [Example 336, (±)-1-[1-(6-{[1-(cyclopropylmethyl)-3-(4-fluorophenyl)-4-methoxy-1H-pyrazol-5-yl]amino}pyrimidin-4-yl)-3,5-dimethyl-1H-pyrazol-4-yl]ethanol]  1650 nM
